These results are taken from PMC9814232, “Structural insights into the potency and selectivity of covalent pan-FGFR inhibitors” (Communications Chemistry, 2022).

One data set has as its target T1, FGFR2(V564F) (Homo sapiens, UniProt P21802, V564F).
T1 construct: FGFR2 (residues 453−770); 6×His (N, cleaved yes); made in house; host or cells: E. coli BL21 (DE3), co-expressed with YOPH
The data set can be described thus: ADP-Glo kinase inhibition assay, FGFR2(V564F) gatekeeper mutant. The format is biochemical. For orientation: ADP-Glo turns the ADP formed in a reaction into a luminescent signal.

Another data set concerns the target T2, FGFR3(V555M) (Homo sapiens, UniProt P22607, V555M).
T2 construct: FGFR3 (residues 450−758); 6×His (N, cleaved yes); made in house; host or cells: E. coli BL21 (DE3), co-expressed with YOPH
The data set can be described thus: ADP-Glo kinase inhibition assay, FGFR3(V555M) gatekeeper mutant. It counts as biochemical.

Data set [1] addresses T3, SRC (Gallus gallus, UniProt P00523).
T3 construct: chicken SRC (residues 251−533); 6×His (N, cleaved yes); made in house; host or cells: E. coli BL21 (DE3), co-expressed with YOPH
The data set can be described thus: ADP-Glo kinase inhibition assay, SRC. The format is biochemical, chicken. The conditions noted are these: for IC50: kinase activity, ADP-Glo, 10 μM ATP, n = 3. The protocol:
(§1) FGFRs, SRC and HCK were prepared as previously described[31]–[33]. […] The primers were synthesized by Tsingke Biotechnolog Co., Ltd., and the sequences were listed in Supplementary Table 2. Then plasmid was transfected into E. coli BL21 (DE3) cells and co-expressed with YOPH to get the non-phosphorylated proteins. Cells were grown in LB at 37 °C and induced for 16 h with 0.5 mM IPTG at 18 °C. Cells were harvested by centrifugation for next purification. All steps of purification were performed at 4 °C. Proteins were first purified by Ni-NTA affinity chromatography, and then 6×His tag was removed by PreScission or TEV protease. […] Anion exchange chromatography (Mono Q) and size exclusion chromatography (SEC) were exploited for further purification. The purified FGFRs proteins were stored in the buffer containing 20 mM tris-HCl pH 8.0, 150 mM NaCl, and 1 mM TCEP, while SRC and HCK proteins in the buffer containing 20 mM tris-HCl pH 8.0, 150 mM NaCl, 5% (v/v) glycerol, and 1 mM TCEP. The purified proteins were concentrated to about 5–15 mg/mL and stored at −80 °C for subsequent studies.
(§2) The ADP-Glo^TM Kinase Assay Kit (Part No #V9101) was purchased from Promega. The experiments were performed according to the manufacturer’s instructions. All kinase inhibition assays were performed with optimized kinase assay buffer consisting of 40 mM Tris-HCl (pH ranging from 7.5 to 8.0), 20 mM MgCl2, 20 mM NaCl, 0.1 mg/mL BSA, 1 mM TCEP, and 4% DMSO[34]. […] Second, 5×ATP plus poly (4:1 Glu, Tyr) peptides (abcam, Part No #ab204877) were added to start the kinase reactions. The final reaction consisted of 0.04 μM kinase, 50 μM Tyr4 peptide and 10 μM ATP in kinase buffer. Then the reactions were terminated by the addition of stop buffer ADP-Glo after half an hour of incubation. […] Finally, […] was measured on a multimode plate reader (Perkin-Elmer) after the addition of detection reagent for half an hour to one hour. IC50 values were determined using a three-parameter log [Inhibitor] versus response model in GraphPad Prism software.

Another data set has as its target T4, FGFR1 (Homo sapiens, UniProt P11362).
T4 construct: human FGFR1 (residues 456−765); 6×His (N, cleaved yes); made in house; host or cells: E. coli BL21 (DE3), co-expressed with YOPH
The data set is described as follows: ADP-Glo kinase inhibition assay, FGFR1. The format is biochemical. The conditions noted are these: kinase activity, 10 μM ATP, n = 3.

A further data set has as its target T5, SRC(C277A) (Gallus gallus, UniProt P00523, C277A).
T5 construct: chicken SRC (residues 251−533); made in house; host or cells: E. coli BL21 (DE3), co-expressed with YOPH
The data set is described as follows: ADP-Glo kinase inhibition assay, SRC(C277A). The format is biochemical, chicken. The note with it: for IC50: kinase activity, ADP-Glo, 10 μM ATP, n = 3. The method, then: as §1, §2

Data set [2] addresses T3, SRC. The data set is described as follows: MALDI-TOF MS covalent adduct formation, SRC. The note with it: protein:inhibitor 1:2, overnight, 4 °C. The format is binding, chicken. The protocol: as §1
For another data set, the target named is T6, FGFR4(V550L) (Homo sapiens, UniProt P22455, V550L).
T6 construct: FGFR4 (residues 445−753); 6×His (N, cleaved yes); made in house; host or cells: E. coli BL21 (DE3), co-expressed with YOPH
T6 sequence (P22455 445-753 V550L): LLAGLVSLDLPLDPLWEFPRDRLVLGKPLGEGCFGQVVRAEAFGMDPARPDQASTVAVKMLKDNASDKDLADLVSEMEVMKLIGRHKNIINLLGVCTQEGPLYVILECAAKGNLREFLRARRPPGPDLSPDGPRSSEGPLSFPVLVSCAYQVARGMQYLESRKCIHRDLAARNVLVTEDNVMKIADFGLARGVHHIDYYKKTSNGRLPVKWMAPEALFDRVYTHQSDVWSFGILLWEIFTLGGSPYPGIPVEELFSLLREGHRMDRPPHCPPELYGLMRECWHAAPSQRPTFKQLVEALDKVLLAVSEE
The data set can be described thus: ADP-Glo kinase inhibition assay, FGFR4(V550L) gatekeeper mutant. The format is biochemical. The conditions noted are these: for IC50: kinase activity, ADP-Glo, 10 μM ATP, n = 3.

Another data set addresses T7, FGFR4 (Homo sapiens, UniProt P22455).
T7 construct: FGFR4 (residues 445−753); 6×His (N, cleaved yes); made in house; host or cells: E. coli BL21 (DE3), co-expressed with YOPH
The data set is described as follows: ADP-Glo kinase inhibition assay, FGFR4. The conditions noted are these: kinase activity, 10 μM ATP, n = 3. It counts as biochemical. The method, then:
as §1, with “The purified proteins were concentrated to about 5–15 mg/mL and stored at −80 °C for subsequent studies.” left out
(§3) The ADP-Glo^TM Kinase Assay Kit (Part No #V9101) was purchased from Promega. […] Finally, […] was measured on a multimode plate reader (Perkin-Elmer) after the addition of detection reagent for half an hour to one hour. IC50 values were determined using a three-parameter log [Inhibitor] versus response model in GraphPad Prism software.

For another data set, the target named is T8, FGFR3 (Homo sapiens, UniProt P22607).
T8 construct: FGFR3 (residues 450−758); 6×His (N, cleaved yes); made in house; host or cells: E. coli BL21 (DE3), co-expressed with YOPH
T8 sequence (P22607 450-758): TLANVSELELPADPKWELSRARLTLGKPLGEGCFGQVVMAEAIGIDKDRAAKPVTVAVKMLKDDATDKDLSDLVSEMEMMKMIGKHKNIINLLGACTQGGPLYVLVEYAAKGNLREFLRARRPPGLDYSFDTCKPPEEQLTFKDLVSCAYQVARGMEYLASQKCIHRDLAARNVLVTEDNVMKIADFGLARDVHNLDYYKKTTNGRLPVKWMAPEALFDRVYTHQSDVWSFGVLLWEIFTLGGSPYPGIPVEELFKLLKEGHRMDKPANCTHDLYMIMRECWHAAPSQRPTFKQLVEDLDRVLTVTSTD
The data set is described as follows: ADP-Glo kinase inhibition assay, FGFR3. It counts as biochemical. The conditions noted are these: kinase activity, 10 μM ATP, n = 3. The method, then:
as §1, with “The purified proteins were concentrated to about 5–15 mg/mL and stored at −80 °C for subsequent studies.” left out
as §3

The target in another data set is T9, YES (Homo sapiens, UniProt P07947).
T9 construct: purchased Carna 08-175
T9 sequence (P07947 whole entry): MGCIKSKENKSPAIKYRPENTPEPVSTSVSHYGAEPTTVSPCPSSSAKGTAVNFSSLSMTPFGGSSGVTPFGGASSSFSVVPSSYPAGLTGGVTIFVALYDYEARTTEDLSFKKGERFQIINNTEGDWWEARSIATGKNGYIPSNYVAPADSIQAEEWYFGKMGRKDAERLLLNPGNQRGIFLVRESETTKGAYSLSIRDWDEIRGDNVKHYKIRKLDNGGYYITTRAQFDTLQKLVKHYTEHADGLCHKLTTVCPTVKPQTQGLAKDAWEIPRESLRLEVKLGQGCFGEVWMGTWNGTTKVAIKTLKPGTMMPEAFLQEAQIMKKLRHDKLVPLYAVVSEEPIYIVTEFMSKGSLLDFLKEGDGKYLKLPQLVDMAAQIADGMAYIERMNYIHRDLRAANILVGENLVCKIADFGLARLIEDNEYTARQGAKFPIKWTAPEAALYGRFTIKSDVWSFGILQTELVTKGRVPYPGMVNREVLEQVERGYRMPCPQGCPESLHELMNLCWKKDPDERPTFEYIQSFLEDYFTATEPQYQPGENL
The data set is described as follows: ADP-Glo kinase inhibition assay, YES. The format is biochemical. The conditions noted are these: for IC50: kinase activity, ADP-Glo, 10 μM ATP, n = 3. The protocol: as §1, §2

For another data set, the target named is T10, FGFR1(V561M) (Homo sapiens, UniProt P11362, V561M).
T10 construct: human FGFR1 (residues 456−765); 6×His (N, cleaved yes); made in house; host or cells: E. coli BL21 (DE3), co-expressed with YOPH
T10 sequence (P11362 456-765 V561M): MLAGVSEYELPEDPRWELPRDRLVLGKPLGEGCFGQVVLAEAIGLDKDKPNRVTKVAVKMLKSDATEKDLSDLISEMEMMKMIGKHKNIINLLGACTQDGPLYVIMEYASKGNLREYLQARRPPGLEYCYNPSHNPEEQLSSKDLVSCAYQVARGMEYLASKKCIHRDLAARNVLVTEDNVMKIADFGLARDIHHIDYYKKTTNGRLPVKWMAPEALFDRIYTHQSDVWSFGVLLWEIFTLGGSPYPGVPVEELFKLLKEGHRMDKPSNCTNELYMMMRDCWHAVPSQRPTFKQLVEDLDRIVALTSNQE
The data set is described as follows: ADP-Glo kinase inhibition assay, FGFR1(V561M) gatekeeper mutant. The note with it: kinase activity, 10 μM ATP, n = 3. The format is biochemical.

Another data set has as its target T11, FGFR2 (Homo sapiens, UniProt P21802).
T11 construct: FGFR2 (residues 453−770); 6×His (N, cleaved yes); made in house; host or cells: E. coli BL21 (DE3), co-expressed with YOPH
The data set can be described thus: ADP-Glo kinase inhibition assay, FGFR2. It counts as biochemical. The note with it: kinase activity, 10 μM ATP, n = 3.

The target in another data set is T12, HCK (Homo sapiens, UniProt P08631).
T12 construct: human HCK (residues 247−526); 6×His (N, cleaved yes); made in house; host or cells: E. coli BL21 (DE3), co-expressed with YOPH
T12 sequence (P08631 247-526): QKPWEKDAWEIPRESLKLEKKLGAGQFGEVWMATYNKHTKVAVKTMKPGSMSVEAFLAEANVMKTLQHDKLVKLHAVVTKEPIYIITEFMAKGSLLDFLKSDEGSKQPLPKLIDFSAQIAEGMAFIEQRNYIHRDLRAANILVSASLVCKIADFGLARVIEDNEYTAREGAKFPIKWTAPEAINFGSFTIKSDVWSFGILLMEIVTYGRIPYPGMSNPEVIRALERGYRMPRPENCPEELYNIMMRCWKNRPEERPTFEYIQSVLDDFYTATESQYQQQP
The data set can be described thus: ADP-Glo kinase inhibition assay, HCK. The conditions noted are these: kinase activity, 10 μM ATP, n = 3. The format is biochemical. The method, then: as §1, with “The purified proteins were concentrated to about 5–15 mg/mL and stored at −80 °C for subsequent studies.” left out
as §3

In data set [3] the test system is FGFR gatekeeper mutations. The conditions noted are these: cited from earlier work.
The test system of a further data set is advanced solid tumors. The note with it: pretreated patients with advanced solid tumors, phase 1 dose-escalation; cited from earlier work.
Where [4] appears, read: kinase activity, ADP-Glo, 10 μM ATP, n = 3.

T7 sequence (P22455 445-753): as the sequence (P22455 445-753 V550L) above, with L106V counted along it
T2 sequence (P22607 450-758 V555M): as the sequence (P22607 450-758) above, with V106M counted along it
T1 sequence (P21802 453-770 V564F): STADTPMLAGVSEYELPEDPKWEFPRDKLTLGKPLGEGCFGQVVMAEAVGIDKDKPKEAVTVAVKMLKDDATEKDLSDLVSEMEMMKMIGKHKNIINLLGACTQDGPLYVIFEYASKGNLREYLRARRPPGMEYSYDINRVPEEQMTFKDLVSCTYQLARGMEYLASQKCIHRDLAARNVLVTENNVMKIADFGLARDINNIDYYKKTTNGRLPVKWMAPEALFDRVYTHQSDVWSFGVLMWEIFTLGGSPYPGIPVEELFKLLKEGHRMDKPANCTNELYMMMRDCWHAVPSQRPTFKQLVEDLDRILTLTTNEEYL
T11 sequence (P21802 453-770): as the sequence (P21802 453-770 V564F) above, with F112V counted along it
T4 sequence (P11362 456-765): as the sequence (P11362 456-765 V561M) above, with M106V counted along it

Consider `C=CC(=O)Nc1ccc(CN2C(=O)N(c3cc(OC)cc(OC)c3)Cc3cnc(Nc4ccc(N5CCN(C)CC5)cc4)nc32)cc1` [FIIN-2], for which the “fold decrease in potency, FGFR2(V564F) vs wild type” value on FGFR2(V564F) (IC50 mutant relative to wild-type FGFR2) is recorded as 95 fold. The IC50 at FGFR2(V564F) (setting [4]) was 276 nM; at FGFR3(V555M) (setting [4]) it was 97 nM; at SRC [1] it was 330 nM; at FGFR1, 6.4 nM; against SRC(C277A), greater than 5000 nM; on FGFR4(V550L) it was 255 nM. Moreover, the concentration for half-maximal inhibition (IC50) against FGFR4 was 21.1 nM; against FGFR3, 6.7 nM; on YES, 365 nM; against FGFR1(V561M), 216 nM; on FGFR2, 2.9 nM; against HCK, greater than 5000 nM. Also, the “fold reduction of potency, FGFR3(V555M) vs wild type” value at FGFR3(V555M) (IC50 mutant relative to wild-type FGFR3) is recorded as 15 fold. The “potency against SRC(C277A) (in words)” value at SRC(C277A) (kinase assay) is “lost their potency”. The “mass shift of SRC protein (covalent adduct)” value at SRC [2] is recorded as “mass shifts were observed”. For the same compound, on FGFR4(V550L) (IC50 mutant relative to wild-type FGFR4), the “fold decrease in potency, FGFR4(V550L) vs wild type” value was 12 fold.
For `C=CC(=O)N1CCN(CCCn2c(=O)c(-c3c(Cl)c(OC)cc(OC)c3Cl)cc3cnc(NC)nc32)CC1` [PRN1371, 8-(3-(4-Acryloylpiperazin-1-yl)propyl)-6-(2,6-dichloro-3,5-dimethoxyphenyl)-2-(methylamino)pyrido[2,3-d]pyrimidin-7(8H)-one], the IC50 on SRC [1] is greater than 5000 nM; against SRC(C277A), greater than 5000 nM; against FGFR4(V550L), greater than 1000 nM; against FGFR4, 31.3 nM; on YES, greater than 5000 nM; at HCK, greater than 5000 nM. Further, the “potency against SRC (in words)” value on SRC [1] (kinase assay) is “negligible potency”. Besides, on FGFR4(V550L) (kinase assay), the “effect on FGFR4(V550L) (in words)” value was “little effect”. For the same compound, in data set [3], the “potency against FGFR gatekeeper mutations (in words)” value is on record as “little potency”. For the same compound, the “potency against YES (in words)” value on YES (kinase assay) is given as “negligible potency”.
For `CCN1CCN(c2ccc(Nc3cc(N(C)C(=O)Nc4c(Cl)c(OC)cc(OC)c4Cl)ncn3)cc2)CC1` [BGJ398, 3-(2,6-dichloro-3,5-dimethoxy-phenyl)-1-{6-[4-(4-ethyl-piperazin-1-yl)-phenylamino]-pyrimidin-4-yl}-1-methyl-urea], the “potency against FGFR gatekeeper mutations (in words)” value in data set [3] is on record as “little potency”.
As to `C=CC(=O)N1CC[C@H](n2nc(C#Cc3cc(OC)cc(OC)c3)c3c(N)ncnc32)C1` [TAS-120], the “most common adverse events” value in the data set on advanced solid tumors is “hyperphosphatemia, diarrhea and constipation”.

By IC50 is commonly meant the midpoint of a concentration-inhibition curve. Higher therefore signals a need for much substance.
